Molecular target: T1, Low molecular weight protein-tyrosine phosphatase A (Mycobacterium tuberculosis (strain ATCC 25618 / H37Rv), UniProt P9WIA1)
T1 sequence (P9WIA1 whole entry): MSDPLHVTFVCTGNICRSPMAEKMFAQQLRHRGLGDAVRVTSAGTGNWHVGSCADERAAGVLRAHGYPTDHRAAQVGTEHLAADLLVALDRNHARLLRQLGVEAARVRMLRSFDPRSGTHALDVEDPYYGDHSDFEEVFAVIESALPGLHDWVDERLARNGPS
Experiment: Inhibition of Mycobacterium tuberculosis PTP-A

| SMILES | IC50 [µM] |
| --- | --- |
| COc1cc(-c2[nH]ccc2Cl)oc1C1=c2[nH]c3cc2[C@H](C(C)C)[C@H]1CCCCCCCC=3 | 8.8 |
| C=c1[nH]c(=Cc2[nH]c(-c3ccc[nH]3)cc2OC)cc1CCCCC [PRODIGIOSIN] | 8.8 |

— BindingDB's records for doi:10.1021/jm2012062 (Universidade Federal De Santa Catarina, 2012)
